Reference: publication PMC11477289, “Low-Basicity 5-HT6 Receptor Ligands from the Group of Cyclic Arylguanidine Derivatives and Their Antiproliferative Activity Evaluation” (International Journal of Molecular Sciences, 2024)
Like-named read-outs stand apart in the source and are kept apart here.

Key:
[1] = target: T1, human serum albumin (HSA) (Homo sapiens, UniProt P02768); design: purchased Daicel Chiral Technologies; method as in PMID 28215942; conditions: cited from earlier work
D2L receptor = D2L receptor (Homo sapiens, UniProt P14416); test: [3H]-raclopride radioligand binding assay, D2
Sequence of D2L receptor (P14416 whole entry): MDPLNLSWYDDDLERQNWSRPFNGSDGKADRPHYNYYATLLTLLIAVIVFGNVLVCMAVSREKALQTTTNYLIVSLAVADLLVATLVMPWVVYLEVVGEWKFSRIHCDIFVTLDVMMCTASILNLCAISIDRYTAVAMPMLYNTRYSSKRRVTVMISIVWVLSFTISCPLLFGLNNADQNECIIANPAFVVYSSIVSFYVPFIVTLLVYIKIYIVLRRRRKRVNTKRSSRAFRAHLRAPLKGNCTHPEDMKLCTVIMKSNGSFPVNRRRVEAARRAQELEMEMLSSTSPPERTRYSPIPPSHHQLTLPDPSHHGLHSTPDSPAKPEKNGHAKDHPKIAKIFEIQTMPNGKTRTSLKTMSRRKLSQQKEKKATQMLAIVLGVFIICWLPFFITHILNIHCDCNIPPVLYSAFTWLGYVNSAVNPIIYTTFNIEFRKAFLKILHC

[2] = target: T1, human serum albumin (HSA); test: Binding to HSA, Chiralpak HSA column
Method in brief: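 HSA binding (%HSA) was estimated by HPLC on a Chiralpak HSA column at 30 °C and 0.9 mL/min. The gradient ran 0–20% isopropanol in 50 mM ammonium acetate over 15 min, then held 12 min. UV detection covered 190–300 nm, and values were calibrated against reference compounds, in triplicate.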

5-HT1A receptor = target: T2, 5-HT1A receptor (Homo sapiens, UniProt P08908); test: [3H]-8-OHDPAT radioligand binding assay, 5-HT1A
T2 sequence (P08908 1-422): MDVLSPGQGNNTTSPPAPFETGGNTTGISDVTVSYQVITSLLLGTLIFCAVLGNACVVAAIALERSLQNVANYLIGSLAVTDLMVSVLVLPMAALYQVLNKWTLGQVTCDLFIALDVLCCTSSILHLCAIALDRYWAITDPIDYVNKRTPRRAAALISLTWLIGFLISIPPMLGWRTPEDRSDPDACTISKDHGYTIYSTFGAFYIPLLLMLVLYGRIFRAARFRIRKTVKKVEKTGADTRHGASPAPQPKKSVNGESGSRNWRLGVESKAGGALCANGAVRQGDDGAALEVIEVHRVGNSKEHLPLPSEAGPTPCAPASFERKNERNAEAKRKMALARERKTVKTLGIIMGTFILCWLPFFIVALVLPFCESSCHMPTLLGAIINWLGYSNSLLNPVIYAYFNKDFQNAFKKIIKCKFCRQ

[3] = system: 1321N1 astrocytoma cell line; test: Antiproliferative activity (MTS), 1321N1; conditions: read-out: IC50 Values 1321N1
human 5-HT6 [4] = target: T3, human 5-HT6 (Homo sapiens, UniProt P50406); test: [3H]-LSD radioligand binding assay, 5-HT6R; conditions: HEK293 expressing human 5-HT6R, read-out: 5-HT6 Ki
T3 construct: expressed in transfected cells
T3 sequence (P50406 whole entry): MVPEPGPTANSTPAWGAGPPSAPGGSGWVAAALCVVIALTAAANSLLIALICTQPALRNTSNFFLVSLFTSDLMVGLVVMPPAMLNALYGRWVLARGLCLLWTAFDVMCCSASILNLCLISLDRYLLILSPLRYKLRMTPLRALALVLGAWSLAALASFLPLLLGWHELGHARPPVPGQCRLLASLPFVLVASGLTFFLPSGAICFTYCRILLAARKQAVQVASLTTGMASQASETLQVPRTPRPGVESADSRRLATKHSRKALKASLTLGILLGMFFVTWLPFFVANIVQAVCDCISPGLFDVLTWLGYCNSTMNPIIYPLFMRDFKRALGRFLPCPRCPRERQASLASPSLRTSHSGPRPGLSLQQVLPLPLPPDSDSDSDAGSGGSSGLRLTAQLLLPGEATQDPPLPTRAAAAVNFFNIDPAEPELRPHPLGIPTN
Method: Next, the ligands’ affinity for the 5-HT6 receptors was evaluated in the [^3H]-LSD radioligand binding assay. Experiments were performed in a stable HEK293 cell line expressing the human 5-HT6R.
The pellets were stored at −80 °C.

[5] = Chromatographic hydrophobicity index on C18 column (lipophilicity); format: physicochemical
Excerpt: (§1) We began with an assay for lipophilicity, affinity for phospholipids (for 40 compounds), and drug binding to human serum albumin (HSA) (for 20 compounds), using chromatographic protocols developed by Valko [46] and implemented in our laboratory [47]. […] These methods allowed the determination of chromatographic hydrophobicity indices (CHIs), binding to HSA (%HSA), and phospholipids (CHIIAM) using a single-gradient elution experiment and comparison to reference substances.
(§2) The mobile phase flow rate was 1.5 mL/min, and the column was maintained at 30 °C. • Chiralpak® HSA (50 mm × 4 mm; 5 µm with safety guard column; Daicel Chiral Technologies, West Chester, PA, USA), mobile phase A: 50 mM ammonium acetate, mobile phase B: HPLC-grade isopropanol (VWR International, Leuven, Belgium). For the first 15 min, the linear gradient from 0 to 20% isopropanol was applied and then held at 20% isopropanol for 12 min. In the last 5 min of the sequence, the mobile phase mixture received a pure ammonium acetate solution. The column temperature was held at 30 °C, whereas the flow rate was 0.9 mL/min.
(§3) The reference substances for the calibration of HSA, C18, and IAM columns were purchased, respectively: acetanilide, butyrophenone, diclofenac, and octanonophenone (Alfa Aesar, Haverhill, MA, USA); acetophenone, benzimidazole, colchicine, indole, indometacin, paracetamol, and theophylline (Sigma-Aldrich, Steinheim, Germany); nicardipine and nizatidine (Cayman Chemical, Ann Arbor, MI, USA); carbamazepine, heptanophenone, hexanophenone, propiophenone, and valerophenone (Acros Organic, Pittsburg, PA, USA). Before chromatographic experiments, solutes were dissolved in dimethyl sulfoxide (Avantor Performance Materials Poland S.A., Gliwice, Poland) to obtain a 200 µg/mL concentration. The detection was performed in the UV region at the wavelength from 190 nm to 300 nm. The injected volume was 5 μL, and each compound was analyzed in triplicate.

[6] = system: LN-229 glioblastoma cell line; test: Antiproliferative activity (MTS), LN-229; conditions: read-out: IC50 Values LN-229
human 5-HT6 [7] = target: T3, human 5-HT6; test: Functional evaluation, cAMP (LANCE Ultra) in HEK293 cells; format: cell-based; conditions: for Kb: antagonist mode, cAMP induced by 5-CT 1000 nM
Method: The supernatant was aspirated, and the cell pellet was resuspended in a stimulation buffer (1 × HBSS, 5 mM HEPES, 0.5 mM IBMX, 0.1% BSA).
The functional properties of compounds were evaluated using the LANCE Ultra cAMP detection kit (PerkinElmer). […] To investigate the antagonist activity, dopamine for D2R was added at a concentration of 10 nM, and for cell lines with 5-HT7R, 5-HT1AR, or 5-HT6R, 5-CT concentrations were adjusted, being, respectively, 10, 100, and 1000 nM, according to the receptor subtype.
For the quantification of cAMP levels, cells (5 µL) were incubated with a 5 µL mixture of necessary compounds for 30 min at room temperature in a 384-well white opaque microtiter plate (PerkinElmer). After incubation, the reaction was stopped, and cells were lysed by the addition of a 10 µL working solution (5 µL Eu-cAMP and 5 µL ULight-anti-cAMP). The assay plate was incubated for 1 h at room temperature. The time-resolved fluorescence resonance energy transfer (TR-FRET) signal was detected by an Infinite M1000 Pro (Tecan, Männedorf, Switzerland) using instrument settings from the LANCE Ultra cAMP detection kit manual.

U-251 glioblastoma cells = test: Antiproliferative activity (MTS), U-251; conditions: read-out: IC50 Values U-251
5-HT7b receptor = 5-HT7b receptor (Homo sapiens, UniProt P34969); test: [3H]-5-CT radioligand binding assay, 5-HT7
Sequence of 5-HT7b receptor (P34969 1-432 limits assumed): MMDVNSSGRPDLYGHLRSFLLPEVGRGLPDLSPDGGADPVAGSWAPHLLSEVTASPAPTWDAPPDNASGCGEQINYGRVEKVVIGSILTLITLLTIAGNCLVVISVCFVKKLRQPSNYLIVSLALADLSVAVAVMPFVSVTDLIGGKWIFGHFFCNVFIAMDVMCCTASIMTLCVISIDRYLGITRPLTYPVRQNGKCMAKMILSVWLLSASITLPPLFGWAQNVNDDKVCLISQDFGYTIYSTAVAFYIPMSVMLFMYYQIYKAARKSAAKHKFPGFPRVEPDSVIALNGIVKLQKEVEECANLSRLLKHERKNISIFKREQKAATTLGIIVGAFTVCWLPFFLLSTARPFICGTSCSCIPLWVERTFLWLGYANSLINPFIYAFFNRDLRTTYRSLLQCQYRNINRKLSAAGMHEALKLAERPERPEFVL

[8] = system: AsPC-1 pancreas adenocarcinoma cell line; test: Antiproliferative activity (MTS), AsPC-1; conditions: read-out: IC50 Values AsPC-1
[9] = Affinity to phospholipids, IAM column (CHI IAM); format: physicochemical; conditions: IAM.PC.DD2 column, pH 7.4
Excerpt: as §1, §2, §3

[10] = system: MCF7 breast carcinoma cell line; test: Antiproliferative activity (MTS), MCF7; conditions: read-out: IC50 Values MCF7
U87MG glioblastoma cells = test: Antiproliferative activity (MTS), U87MG; conditions: 72 h, read-out: IC50 Values U87MG
[11] = Metabolic stability in mouse liver microsomes (MLMs); format: in vitro ADME; conditions: mouse, mouse liver microsomes, 120 min
Method: The metabolic stability of PR 68, PR 73, and PR 76 were determined in mouse liver microsomes (MLMs).
The metabolic stability of PR 68 was estimated with mouse liver microsomes (MLMs) (Sigma-Aldrich, St. Louis, MO, USA). […] Cold methanol was then added to the reaction mixture to quench the reaction. The precipitated MLMs were centrifuged, and the supernatant was analyzed by LC/MS with a Waters ACQUITY™ TQD system with a TQ detector (Waters, Milford, USA).
(1 picture or pasted object on this page, not shown here)

[12] = system: normal human astrocytes (NHAs); test: Activity on normal astrocytes (MTS), NHA; conditions: for IC50: Homo sapiens, Astrocyte, 72 h, read-out: IC50 Values NHA
5-HT5A receptor = 5-HT5A receptor (Homo sapiens, UniProt P47898); test: [3H]-LSD radioligand binding assay, 5-HT5A; conditions: read-out: 5-HT5A Ki; [3H]-LSD, HEK293
Sequence of 5-HT5A receptor (P47898 whole entry): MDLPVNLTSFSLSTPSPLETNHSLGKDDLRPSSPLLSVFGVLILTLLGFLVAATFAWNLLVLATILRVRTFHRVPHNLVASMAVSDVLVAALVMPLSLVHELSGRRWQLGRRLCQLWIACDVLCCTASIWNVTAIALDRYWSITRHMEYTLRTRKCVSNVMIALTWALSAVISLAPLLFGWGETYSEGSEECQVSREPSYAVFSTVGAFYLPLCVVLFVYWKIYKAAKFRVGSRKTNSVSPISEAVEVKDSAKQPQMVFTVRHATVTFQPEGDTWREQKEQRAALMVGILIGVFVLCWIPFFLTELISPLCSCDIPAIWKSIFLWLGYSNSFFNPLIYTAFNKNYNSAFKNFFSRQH

[13] = design: method as in PMID 36183548; conditions: MLMs, as previously reported ref 30; cited from earlier work
HEK293 = test: Cytotoxic activity on HEK293; format: cell-based; conditions: Homo sapiens
Excerpt: Table 6 Extended receptor affinity study, with functional tests and cytotoxic activity of selected compounds on HEK293. | column: HEK293 / IC50 [µM]

HSA and AGP (24:1) = test: in vitro; conditions: human, plasma

T1 sequence (P02768 25-609): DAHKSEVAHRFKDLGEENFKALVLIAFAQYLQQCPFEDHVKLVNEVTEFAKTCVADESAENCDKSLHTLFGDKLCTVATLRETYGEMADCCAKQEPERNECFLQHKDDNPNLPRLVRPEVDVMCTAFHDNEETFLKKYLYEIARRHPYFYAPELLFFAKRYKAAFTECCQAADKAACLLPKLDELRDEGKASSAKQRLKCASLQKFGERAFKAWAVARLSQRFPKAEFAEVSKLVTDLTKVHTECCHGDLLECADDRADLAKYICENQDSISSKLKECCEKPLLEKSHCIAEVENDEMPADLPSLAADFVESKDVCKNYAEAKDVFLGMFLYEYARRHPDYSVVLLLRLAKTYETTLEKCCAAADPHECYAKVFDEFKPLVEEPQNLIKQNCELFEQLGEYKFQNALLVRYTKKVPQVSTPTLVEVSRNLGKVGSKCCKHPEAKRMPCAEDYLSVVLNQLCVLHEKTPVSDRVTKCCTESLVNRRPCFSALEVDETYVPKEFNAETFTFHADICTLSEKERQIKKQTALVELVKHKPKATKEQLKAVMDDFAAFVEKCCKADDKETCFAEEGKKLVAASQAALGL

Row | Molecule | melting point | Ki (D2L receptor) | Ki (5-HT1A receptor) | IC50 ([3]; Homo sapiens, 1321-N1, 72 h) | Ki (human 5-HT6 [4]) | CHI C18 pH 2.6 [5] | CHI C18 pH 7.4 [5] | CHI C18 pH 10.5 [5] | IC50 ([6]; Homo sapiens, LN-229, 72 h) | IC50 (U-251 glioblastoma cells; Homo sapiens, U-251, 72 h) | Ki (5-HT7b receptor) | IC50 ([8]; Homo sapiens, ASPC1, 72 h) | CHI IAM [9] | IC50 ([10]; Homo sapiens, MCF7, 72 h) | IC50 (U87MG glioblastoma cells; Homo sapiens, U-87 MG) | other results
1 | O=c1[nH]c2ccccc2n1C1CCN(CCCC(c2ccc(F)cc2)c2ccc(F)cc2)CC1 [pimozide] |  |  |  |  |  |  |  |  |  |  |  |  |  |  |  | affinity to HSA [1]: 98.6%
2 | CC1NC(NS(=O)(=O)c2cccc3ccccc23)=Nc2c(Cl)cccc21 (stereo not drawn) [PR 71, N -(8-chloro-4-methyl-3,4-dihydroquinazolin-2-yl)naphthalene-1-sulfonamide] | 215 to 219 °C | 142 µM | 134 µM | > 25 µM | 0.061 ± 0.014 µM | 102.2 | 100.7 | 103.8 | > 25 µM | > 25 µM | 37.5 µM | > 25 µM | 44.8 | > 25 µM | > 25 µM | %HSA ([2]; Chiralpak HSA column): 97.5%; logKHSA ([2]; Chiralpak HSA column): 1.4; Kb (human 5-HT6 [7]): 0.035 µM
3 | CC1c2ccccc2N=C(NS(=O)(=O)c2cccc3ccccc23)N1C (stereo not drawn) [PR 76, N -(3,4-dimethyl-3,4-dihydroquinazolin-2-yl)naphthalene-1-sulfonamide] | 215 to 217 °C | 174 µM | 11 µM | > 25 µM | 0.103 ± 0.025 µM |  |  |  | > 25 µM | > 25 µM | 35.6 µM | > 25 µM |  | > 25 µM | > 25 µM | EC50 (human 5-HT6 [7]; agonist mode, cAMP): 0.199 µM; function at 5-HT6R (human 5-HT6 [7]; cAMP): agonist; remaining at 2 h, 50 µM [11]: 87.4%
4 | CN(C)c1ccc2c(c1)CNC(NS(=O)(=O)c1cccc3ccccc13)=N2 [PR 64, N -[6-(dimethylamino)-3,4-dihydroquinazolin-2-yl]naphthalene-1-sulfonamide] | 216 to 222 °C |  |  | > 25 µM | 0.851 ± 0.192 µM |  |  |  | > 25 µM | 7.7 ± 0.8 µM |  | > 25 µM |  | 9.7 ± 1.7 µM | > 25 µM | IC50 [12]: 15.1 ± 2.1 µM; selectivity index ([12]; activity on NHA compared to U-251 cells): 1.96
5 | N -[6-(4-methylpiperazin-1-yl)-3,4-dihydroquinazolin-2-yl]naphthalene-1-sulfonamide [PR 66] |  |  |  |  | 11.6 ± 2.66 µM | 81.4 | 79.6 | 80.7 |  |  |  |  | 36.0 |  |  | %HSA [2]: 92.7%; logKHSA [2]: 1.0; IC50 ([3]; 72 h, MTS): > 25 µM; IC50 ([6]; 72 h, MTS): > 25 µM; IC50 (U-251 glioblastoma cells; 72 h, MTS): > 25 µM; IC50 ([8]; 72 h, MTS): > 25 µM; Ki (5-HT5A receptor): 3.44 µM; IC50 ([10]; 72 h, MTS): > 25 µM; IC50 (U87MG glioblastoma cells; MTS): > 25 µM
6 | CN(C)C/C=C/C(=O)Nc1cc2c(Nc3ccc(F)c(Cl)c3)ncnc2cc1O[C@H]1CCOC1 [Afatinib, reference compound] |  |  |  |  |  |  |  |  | 9.8 µM | 27 µM |  |  |  | 25.9 µM |  | IC50 [12]: 7.5 µM
7 | O=S(=O)(NC1=NCc2ccccc2N1)c1cccc2ccccc12 [PR 40, N -(3,4-dihydroquinazolin-2-yl)naphthalene-1-sulfonamide] |  |  |  |  | 0.651 ± 0.135 µM |  |  |  |  |  |  |  |  |  |  | metabolized [13]: 97%
8 | O=S(=O)(NC1=Nc2c(Cl)cccc2CN1)c1cccc2ccccc12 [PR 49, N -(8-chloro-3,4-dihydroquinazolin-2-yl)naphthalene-1-sulfonamide] | 250 to 256 °C |  | 207 µM | > 25 µM | 0.077 ± 0.018 µM |  |  |  | > 25 µM | > 25 µM | 142 µM | > 25 µM |  | > 25 µM | > 25 µM | Kb (human 5-HT6 [7]): 0.081 µM; IC50 (HEK293): 38.8 µM
9 | CC1OC(NS(=O)(=O)c2cccc3ccccc23)=Nc2ccccc21 (stereo not drawn) [PR 77, N -(4-methyl-4H-3,1-benzoxazin-2-yl)naphthalene-1-sulfonamide] | 229 to 233 °C | 222 µM | 7.54 µM | > 25 µM | 0.373 ± 0.092 µM | 102.5 | 99.9 | 103.2 | > 25 µM | > 25 µM | 56.7 µM | > 25 µM | 40.8 | > 25 µM | > 25 µM | %HSA ([2]; Chiralpak HSA column): 95.9%; logKHSA ([2]; Chiralpak HSA column): 1.3
10 | CC(=O)CC(c1ccccc1)c1c(O)c2ccccc2oc1=O (stereo not drawn) [warfarin] |  |  |  |  |  |  |  |  |  |  |  |  |  |  |  | fraction unbound at 12 min, 20 µM (HSA and AGP (24:1)): 0.015
